Patent publication US6890948B1 (Cancer Research Technology Limited, priority 2000, dated 2005)
Where two headings read alike, the source gives them in different places. Marks after values point to notes of the source that are not given here. Values belong to the compound of their own block, whether it stands above or below them.

What was measured:
[1] = tested on: Hamster lung fibroblast V79 cells; experiment: Cytotoxic effects of compounds of formula (I) with horseradish peroxidase (HRP), clonogenic cell survival; type: cell-based; settings: 2 hours treatment, mean ± standard error of three experiments unless n given
Description: Hamster lung fibroblast V79 cells were obtained from the European Tissue Culture Collection. Cells were grown over the weekend in […] tissue culture flats as attached cells in Eagle's Modified Essential Medium (EMEM) supplemented with 10% foetal calf serum, 2 mM L-glutamine, 100 U/mL penicillin and 100 μg/mL streptomycin, and incubated in a humidified incubator at 37° C., in 5% CO2/air. […] The trypsin was deactivated by the addition of 10 mL spinner modified EMEM (supplemented with 7.5% foetal calf serum) and the cells allowed to grow in a spinning culture, pre-gassed with 5% CO2/air, maintaining the cells in logarithmic growth.
Cells were prepared for toxicity measurements by counting and plating 200, 2000 or 20,000 cells/6 cm Petri dish in 3 mL EMEM in triplicate for each sample. The cells were allowed to attach for at least 1 hour, then the medium removed and 2 mL phenol red free Hanks' balanced salt solution added, either alone (control) or with 50 or 100 μM of the compound of formula (I) to be tested. HRP (50 μL of 0.048 mg/mL) was added to the test dishes requiring it and the cells left in the incubator for 0, 0.5, 1, 1.5 or 2 hours. After the incubation time the drug was removed, the cells washed with 2 mL Hanks and then 4 mL EMEM added. The cells were allowed to grow for 7 days to colonies of >50 cells. After 7 days the medium was removed and the cells fixed with 75% methanol for 5 minutes. The methanol was then removed and the cells stained with 1% w/v crystal violet for 5 minutes. The cells were washed and colonies counted. Cell survival was determined by calculating the ratio of colonies growing compared to untreated control cells.
In table 1, values are the surviving fraction after 2 hours treatment with the IAA derivatives at the concentrations shown together with HRP (1.2 μg/mL). Unless otherwise indicated (by n=number of individual experiments), the means±the standard errors of three experiments are given.

[2] = Distribution of 5-fluoro-indole acetic acid in vivo in mice with the Carcinoma NT tumour; settings: 50 mg/kg i.p., female CBA mice bearing Carcinoma NT tumour, up to 2 hours
Description: 5-fluoro-indole acetic acid (5 mg/mL) in 2% v/v ethanol/water was adjusted to pH 7.4 with NaOH and injected i.p. at a dose of 50 mg/kg into female CBA mice bearing the Carcinoma NT tumour (see example 8 for details). The mice were sacrificed up to 2 hours after drug administration and the blood and tissues removed immediately and placed on ice. The whole blood was spun down and the plasma stored at −20° C. Tissue sample were weighed and homogenised in 4 to 9 volumes of ice-cold water. The homogenised tissue was then stored at −20° C.
For HPLC analysis, plasma (50 μL) was mixed with IAA internal standard (130 μM, 25 μL) and protein precipitated with acetonitrile (50 μL). The samples were spun down and the supernatant injected directly for HPLC analysis. For tissue levels, samples (250 μL) was mixed with IAA internal standard (130 μM, 25 μL) and precipitated with acetonitrile (250 μL) for direct injection for HPLC analysis. HPLC analysis was carried out with a Hypersil SODS 125×4.6 mm column eluting with A; 75% acetonitrile and B: 20 mM ammonium acetate (pH 5.1) with a gradient of 15-70% A in 10 minutes at 2 mL/minute. Detection was at 290 nm using a Waters 486 variable wavelength detector.

[3] = tested on: Human bladder carcinoma T24 cells; experiment: GDEPT: clonogenic survival of cells transiently transfected with the HRP gene versus untransfected cells; type: cell-based; settings: for IC50: Homo sapiens, T-24, 24 h; for factor: ratio of IC50 for transfected and untransfected cells
Description: (§1) Human bladder carcinoma T24 cells, MCF-7 mammary carcinoma cells (both from European Collection of Cell Cultures, Salisbury, UK), FaDu, nasopharyngeal squamous carcinoma cells (American Type Culture Collection, Manassas, Va.) were maintained in Dulbecco's modified Eagle's medium (DMEM) supplemented with 10% foetal calf serum, 2 mM L-glutamine, 100 U/ml penicillin, 100 µg/ml streptomycin, and incubated in a humidified incubator at 37° C. and 5% CO2/air. Only cells which tested negative for mycoplasma infection were utilised.
(§2) Following drug exposure, cells were rinsed with PBS and grown for 8 to 20 days in complete DMEM supplemented with feeder cells (V79 cells exposed to 250 Gy ^60Co irradiation). After fixation and staining with 2.5% crystal violet w/v in methylated spirit, colonies of >50 cells were scored. Surviving fractions were evaluated relative to HBSS-treated controls.

[4] = tested on: FaDu, nasopharyngeal squamous carcinoma cells; experiment: as above; type: cell-based, human; settings: for IC50: Homo sapiens; for factor: ratio of IC50 for transfected and untransfected cells
Description: as §1, §2

[5] = tested on: MCF-7 mammary carcinoma cells; experiment: as above; type: cell-based, human; settings: for IC50: Homo sapiens; for factor: MCF-7, ratio of IC50 for transfected and untransfected cells
Description: as §1, §2

[6] = 100 μM IAA derivative together with HRP (1.2 μg/mL), 0^a = all cells killed, 1^b = no detectable effect
[7] = 50 μM IAA derivative together with HRP (1.2 μg/mL)

melting point: 164 to 165 °C
SMILES: O=C(O)Cc1c[nH]c2c(Cl)cccc12 [SR052, 7-Chloroindole-3-acetic acid]
surviving fraction [1, 6]: 0.000042 (n = 1)

levels in the kidney [2]: High levels in the kidney
SMILES: O=C(O)Cc1c[nH]c2ccc(F)cc12 [Compound 5-fluoro, 5-fluoro-indole-3-acetic acid]
concentration in the tumour [2]: sufficient concentrations to achieve a cytotoxic effect are attained in the tumour
IC50 ([3]; T24 (anoxic), transfected cells, 24 hours exposure in anaerobic cabinet, read-out: IC50 HRP+): 30 µM
IC50 ([3]; T24 (anoxic), untransfected cells, 24 hours exposure in anaerobic cabinet, read-out: IC50 HRP−): 2300 µM
IC50 ([3]; T24 (normoxic), transfected cells, 24 hours exposure, estimated from survival curves, read-out: IC50 HRP+): 40 µM
IC50 ([3]; T24 (normoxic), untransfected cells, 24 hours exposure, read-out: IC50 HRP−): 3500 µM
factor ([3]; T24 (anoxic)): 77
factor ([3]; T24 (normoxic)): 88
surviving fraction [1, 7]: 0.0045 ± 0.003
surviving fraction [1, 6]: 0^a
IC50 ([4]; transfected cells, 24 hours exposure, read-out: IC50 HRP+): 20 µM
IC50 ([4]; untransfected cells, 24 hours exposure, read-out: IC50 HRP−): 1200 µM
factor [4]: 60
IC50 ([5]; MCF7, MCF-7, transfected cells, 24 hours exposure, read-out: IC50 HRP+): 250 µM
IC50 ([5]; MCF7, MCF-7, untransfected cells, 24 hours exposure, read-out: IC50 HRP−): 400 µM
factor [5]: 1.6

melting point: 164 to 166 °C
SMILES: O=C(O)Cc1c[nH]c2c(F)cc(Cl)cc12 [SR091, 5-Chloro-7-fluoroindole-3-acetic acid]

melting point: 159 to 161 °C
SMILES: O=C(O)Cc1c[nH]c2c(F)cccc12 [SR022, 7-Fluoroindole-3-acetic acid]
surviving fraction [1, 7]: 0.053 ± 0.022
surviving fraction [1, 6]: 0^a

melting point: 166 to 168 °C
SMILES: O=C(O)Cc1c[nH]c2ccc(-c3ccc(Cl)cc3)cc12 [SR150, 5-(4-Chlorophenyl)indole-3-acetic acid]

melting point: 174 to 176 °C
SMILES: O=C(O)Cc1c[nH]c2cc(Br)ccc12 [SR069, 6-Bromoindole-3-acetic acid]
surviving fraction [1, 7]: 0.0031 ± 0.0023
surviving fraction [1, 6]: 0^a

melting point: 120 to 122 °C
SMILES: O=C(O)Cc1c[nH]c2ccc(OC(F)(F)F)cc12 [SR073, 5-Trifluoromethoxyindole-3-acetic acid]

melting point: 183 to 185 °C
SMILES: O=C(O)Cc1c[nH]c2cc(Cl)ccc12 [SR058, 6-Chloroindole-3-acetic acid]
surviving fraction [1, 7]: 0.00085 (n = 1)
surviving fraction [1, 6]: 0^a

melting point: 162 to 164 °C (dec.)
SMILES: Cc1ccc(F)c2[nH]cc(CC(=O)O)c12 [SR148, 7-Fluoro-4-methylindole-3-acetic acid]

melting point: 223 to 224 °C
SMILES: O=C(O)Cc1c[nH]c2cc(Cl)cc(Cl)c12 [SR085, 4,6-Dichloroindole-3-acetic acid]

melting point: 130 to 132 °C (dec.)
SMILES: Cn1cc(CC(=O)O)c2ccc(Cl)cc21 [SR139, 6-Chloro-1-methylindole-3-acetic acid]

melting point: 138 to 140 °C
SMILES: Cc1cc(F)c2[nH]cc(CC(=O)O)c2c1 [SR109, 7-Fluoro-5-methylindole-3-acetic acid]

melting point: 160 to 161 °C
SMILES: O=C(O)Cc1c[nH]c2ccc(Cl)cc12 [SR024, 5-Chloroindole-3-acetic acid]
surviving fraction [1, 6]: 0.0027 ± 0.0022

melting point: 161 to 163 °C
SMILES: O=C(O)Cc1c[nH]c2cc(F)ccc12 [SR043, 6-Fluoroindole-3-acetic acid]
surviving fraction [1, 6]: 0.00995 (n = 2)

SMILES: O=C(O)Cc1c[nH]c2ccc(Br)cc12 [Compound 5-bromo, 5-bromo-indole-3-acetic acid]
IC50 ([3]; read-out: IC50 HRP+, T24 (anoxic), transfected cells, 24 hours exposure in anaerobic cabinet): 7 µM
IC50 ([3]; read-out: IC50 HRP+, T24 (normoxic), transfected cells, 24 hours exposure, estimated from survival curves): 6 µM
IC50 ([3]; read-out: IC50 HRP−, T24 (anoxic), untransfected cells, 24 hours exposure in anaerobic cabinet): 1000 µM
IC50 ([3]; read-out: IC50 HRP−, T24 (normoxic), untransfected cells, 24 hours exposure): 600 µM
factor ([3]; T24 (anoxic)): 43
factor ([3]; T24 (normoxic)): 100
surviving fraction [1, 6]: 0.00004 ± 0.00003
IC50 ([4]; 24 h, read-out: IC50 HRP+): 7 µM
IC50 ([4]; 24 h, read-out: IC50 HRP−): 600 µM
factor [4]: 86
IC50 ([5]; MCF7, 24 h, read-out: IC50 HRP+): 7 µM
IC50 ([5]; MCF7, 24 h, read-out: IC50 HRP−): 500 µM
factor [5]: 71

melting point: 182 to 184 °C
SMILES: Cc1[nH]c2ccc(F)cc2c1CC(=O)O [SR036, 5-Fluoro-2-methylindole-3-acetic acid]

melting point: 129 to 131 °C
SMILES: O=C(O)Cc1c[nH]c2cccc(F)c12 [SR039, 4-Fluoroindole-3-acetic acid]
surviving fraction [1, 6]: 0.000085 ± 0.00007
